# Reference: patent US9120795B2, “Crystalline form of a β-lactamase inhibitor” (Cubist Pharmaceuticals, Inc., priority 2013, dated 2015)
# “Also recorded” adds a separate entry of the source.
# How the values were obtained:
# [1] = test system: Eco isogenic, CTX-M-15; assay: Synergy MIC (sMIC) assay; format: cell-based, E. coli; conditions: CTX-M-15, isogenic Eco; CXA-101 at 4 μg/mL
# Method: (§1) The synergy MIC (sMIC) assay determines the concentration of the BLI required to potentiate the activity of a fixed concentration of a β-lactam antibiotic against β-lactamase producing bacterial strains. The experimental protocol was performed according to Clinical and Laboratory Standards Institute (CLSI) guidelines with modifications as described below (CLSI guidelines can be derived from the CLSI document M07-A9 published in January 2012: “Methods for Dilution Antimicrobial Susceptibility Tests for Bacteria That Grow Aerobically; Approved Standard-Ninth Edition”). The assay is set-up by serially diluting the BLI across 11 of the 12 wells in each row of a 96-well broth microdilution assay plate, adding the β-lactam at a fixed concentration to all wells in the assay plate, inoculating the assay plate with bacterial strains, and determining the lowest concentration of BLI required to inhibit overnight bacterial growth.
# (§2) To prepare for MIC testing, frozen glycerol stocks of clinical isolates (Klebsiella pneumoniae, Eschericia coli, Enterobacter spp, Citrobacter spp, or Pseudomonas aeruginosa) were used to streak for isolated colonies on rich, non-selective, tryptic soy agar containing 5% sheep's blood (TSAB). Frozen glycerol stocks of laboratory engineered, isogenic E. coli strains, which contain cloned β-lactamase expressing plasmids were used to streak for isolated colonies on rich, selective LB agar supplemented with 25 μg/mL tetracycline to maintain the plasmid. All strains were incubated at 37° C. for 18-24 hrs.
# (§3) On the day of testing, primary cultures were started by scraping off 5-10 colonies from the TSAB plates containing clinical strains or the tetracycline supplemented LB plates containing engineered strains. The clinical strain material was suspended in ˜5 mL of cation adjusted Mueller Hinton Broth (CAMHB) in 14 mL culture tubes. The engineered strain material was suspended in CAMHB (supplemented with tetracycline at 25 μg/mL) in 14 mL culture tubes. All strains were incubated at 37° C. with aeration (200 rpm) for ˜2 hrs until the OD600 was ≧0.1.
# (§4) The two compound components of the assay were each prepared in CAMHB and added to the 96-well broth microdilution assay plates. 50 μL of the BLI was added to each well of the assay plate in 2-fold dilutions with final concentrations ranging from 128 to 0.13 μg/mL. 25 μL of the β-lactam was added to all wells in the broth microdilution plates at a final concentration of 4 μg/mL. Inoculum cultures were prepared by standardizing the primary cultures to OD600=0.1 and then adding 20 μL of the adjusted primary culture per 1 mL CAMHB for clinical strains or CAMHB (supplemented with tetracycline at 100 μg/mL) for isogenic strains, so that the final inoculum density was ˜10^5 colony forming units per milliliter. Diluted inoculum cultures were used to inoculate 25 μL per well in 96-well broth microdilution assay plates. […]
# (§5) Plates were incubated for 18-20 hours at 37° C. with aeration (200 rpm). Following incubation, growth was confirmed visually placing plates over a viewing apparatus (stand with a mirror underneath) and then OD600 was measured using a SpectraMax 340PC384 plate reader (Molecular Devices, Sunnyvale, Calif.). Growth was defined as turbidity that could be detected with the naked eye or achieving minimum OD600 of 0.1. sMIC values were defined as the lowest concentration producing no visible turbidity. […]
# [2] = test system: Eco isogenic, SHV-12; assay: Synergy MIC (sMIC) assay; format: cell-based, E. coli; conditions: SHV-12, isogenic Eco; CXA-101 at 4 μg/mL
# Method: as §1, §2, §3, §4, §5
# [3] = test system: Eco isogenic, KPC-2; assay: Synergy MIC (sMIC) assay; format: cell-based, E. coli; conditions: KPC-2, isogenic Eco; CXA-101 at 4 μg/mL
# Method: as §1, §2, §3, §4, §5
# [4] = test system: Eco isogenic, OXA-15; assay: Synergy MIC (sMIC) assay; format: cell-based, E. coli; conditions: OXA-15, isogenic Eco; CXA-101 at 4 μg/mL
# Method: as §1, §2, §3, §4, §5
# [5] = test system: Eco isogenic, P99; assay: Synergy MIC (sMIC) assay; format: cell-based, E. coli; conditions: CXA-101 at 4 μg/mL
# Method: as §1, §2, §3, §4, §5
# [6] = test system: Pae clinical, KPC-2; assay: Synergy MIC (sMIC) assay; format: cell-based, Pseudomonas aeruginosa; conditions: KPC-2, clinical Pae; CXA-101 at 4 μg/mL
# Method: The synergy MIC (sMIC) assay determines the concentration of the BLI required to potentiate the activity of a fixed concentration of a β-lactam antibiotic against β-lactamase producing bacterial strains. The experimental protocol was performed according to Clinical and Laboratory Standards Institute (CLSI) guidelines with modifications as described below (CLSI guidelines can be derived from the CLSI document M07-A9 published in January 2012: “Methods for Dilution Antimicrobial Susceptibility Tests for Bacteria That Grow Aerobically; Approved Standard-Ninth Edition”). […]
# as §5
# [7] = Gravimetric vapour sorption (GVS/DVS), hygroscopicity; format: physicochemical; conditions: DVS, 25° C., 0-90% RH; sulfate
# Method: Sorption isotherms were obtained using a SMS DVS Intrinsic moisture sorption analyser, controlled by DVS Intrinsic Control software v1.0.1.2 (or v 1.0.1.3). The sample temperature was maintained at 25° C. by the instrument controls. The humidity was controlled by mixing streams of dry and wet nitrogen, with a total flow rate of 200 ml/min The relative humidity was measured by a calibrated Rotronic probe (dynamic range of 1.0-100% RH), located near the sample. The weight change, (mass relaxation) of the sample as a function of % RH was constantly monitored by the microbalance (accuracy ±0.005 mg).
# Typically 5-20 mg of sample was placed in a tared mesh stainless steel basket under ambient conditions. The sample was loaded and unloaded at 40% RH and 25° C. (typical room conditions). A moisture sorption isotherm was performed as outlined below (2 scans giving 1 complete cycle). The standard isotherm was performed at 25° C. at 10% RH intervals over a 0-90% RH range Data analysis was undertaken in Microsoft Excel using DVS Analysis Suite v6.2 (or 6.1 or 6.0).
# The sample was recovered after completion of the isotherm and re-analysed by XRPD.
compound,measurement,setting,value
"O=C1N2C[C@@H](CC[C@H]2c2nnco2)N1OS(=O)(=O)[O-].[Na+] [Hydrate 1, sodium (2S,5R)-2-(1,3,4-oxadiazol-2-yl)-7-oxo-1,6-diazabicyclo[3.2.1]octan-6-yl sulfate]",sMIC,[1],A (A = 0.25-0.5 μg/mL)
same,sMIC,[2],B (B = 1-2 μg/mL)
same,sMIC,[3],AA (AA = <0.25 μg/mL)
same,sMIC,[4],B (B = 1-2 μg/mL)
same,sMIC,[5],AA (AA = <0.25 μg/mL)
same,sMIC,[6],C (C = 4-8 μg/mL)
same,hygroscopicity relative to the amorphous form,[7],significantly less hygroscopic than the amorphous form; also recorded: low hygroscopicity relative to amorphous
